{"source": "patent US20050070510A1", "about": "“Substituted tetracycline compounds as synergistic antifungal agents” (Paratek Pharmaceuticals, Inc., priority 2001, published 2005)"}
{"system": "COS-1 cells", "assay": "In vitro mammalian cytotoxicity assay (Resazurin)"}
{"molecule": "CCCCc1cc(CN)c(O)c2c1C[C@@]1(N)C[C@@]3(N)[C@H](N(C)C)C(O)=C(C(N)=O)C(=O)[C@@]3(C#N)C(O)=C1C2=O", "note": "[KV]", "In Vitro Cytotoxicity": "* (toxicities greater than >25 μg/ml are represented by *)"}
{"molecule": "CN(C)c1cc(CNC(=O)Nc2ccccc2)c(O)c2c1C[C@@]1(N)C[C@@]3(N)[C@H](N(C)C)C(O)=C(C(N)=O)C(=O)[C@@]3(C#N)C(O)=C1C2=O", "note": "[ME]", "In Vitro Cytotoxicity": "* (toxicities greater than >25 μg/ml are represented by *)"}
{"molecule": "CN(C)c1ccc(-c2cc(CN)c(O)c3c2C[C@@]2(N)C[C@@]4(N)[C@H](N(C)C)C(O)=C(C(N)=O)C(=O)[C@@]4(C#N)C(O)=C2C3=O)cc1", "note": "[QN]", "In Vitro Cytotoxicity": "* (toxicities greater than >25 μg/ml are represented by *)"}
{"molecule": "COc1ccc(-c2ccc(O)c3c2C[C@@]2(N)C[C@@]4(N)[C@H](N(C)C)C(O)=C(C(N)=O)C(=O)[C@@]4(C#N)C(O)=C2C3=O)c(OC)c1", "note": "[OM]", "In Vitro Cytotoxicity": "** (toxicities less than 25 μg/mL are represented by **)"}
{"molecule": "CN(C)c1cc(CNC(=O)Nc2ccc(Cl)cc2)c(O)c2c1C[C@@]1(N)C[C@@]3(N)[C@H](N(C)C)C(O)=C(C(N)=O)C(=O)[C@@]3(C#N)C(O)=C1C2=O", "note": "[MW]", "In Vitro Cytotoxicity": "** (toxicities less than 25 μg/mL are represented by **)"}
{"molecule": "CN(C)[C@@H]1C(O)=C(C(N)=O)C(=O)[C@@]2(C#N)C(O)=C3C(=O)c4c(O)ccc(-c5cc6ccccc6o5)c4C[C@@]3(N)C[C@@]12N", "note": "[FM]", "In Vitro Cytotoxicity": "* (toxicities greater than >25 μg/ml are represented by *)"}
{"molecule": "CN(C)[C@@H]1C(O)=C(C(N)=O)C(=O)[C@@]2(C#N)C(O)=C3C(=O)c4c(ccc(N5CCCCC5)c4O)C[C@@]3(N)C[C@@]12N", "note": "[SO]", "In Vitro Cytotoxicity": "** (toxicities less than 25 μg/mL are represented by **)"}
{"molecule": "COc1cccc(C#Cc2cc(N(C)C)c3c(c2O)C(=O)C2=C(O)[C@]4(C#N)C(=O)C(C(N)=O)=C(O)[C@@H](N(C)C)[C@]4(N)C[C@]2(N)C3)c1", "note": "[JF]", "In Vitro Cytotoxicity": "** (toxicities less than 25 μg/mL are represented by **)"}
{"molecule": "CN(C)[C@@H]1C(O)=C(C(N)=O)C(=O)[C@@]2(C#N)C(O)=C3C(=O)c4c(ccc(/C=C/C(=O)O)c4O)[C@H](O)[C@@]3(N)[C@H](O)[C@@]12N", "note": "[AV]", "In Vitro Cytotoxicity": "** (toxicities less than 25 μg/mL are represented by **)"}
{"molecule": "CN(C)[C@@H]1C(O)=C(C(N)=O)C(=O)[C@@]2(C#N)C(O)=C3C(=O)c4c(O)ccc(-c5cccc(C(N)=O)c5)c4C[C@@]3(N)C[C@@]12N", "note": "[IS]", "In Vitro Cytotoxicity": "* (toxicities greater than >25 μg/ml are represented by *)"}
{"molecule": "Cc1ccnc(-c2ccc(O)c3c2C[C@@]2(N)C[C@@]4(N)[C@H](N(C)C)C(O)=C(C(N)=O)C(=O)[C@@]4(C#N)C(O)=C2C3=O)c1", "note": "[VE]", "In Vitro Cytotoxicity": "** (toxicities less than 25 μg/mL are represented by **)"}
{"molecule": "CN(C)[C@@H]1C(O)=C(C(N)=O)C(=O)[C@@]2(C#N)C(O)=C3C(=O)c4c(ccc(C5C=CCC5)c4O)C(N)[C@@]3(N)[C@H](O)[C@@]12N", "note": "(stereo partly drawn) [AY]", "In Vitro Cytotoxicity": "** (toxicities less than 25 μg/mL are represented by **)"}
{"molecule": "CN(C)[C@@H]1C(O)=C(C(N)=O)C(=O)[C@@]2(C#N)C(O)=C3C(=O)c4c(ccc(NC(=O)Nc5ccc(Cl)cc5C(F)(F)F)c4O)[C@H](N)[C@@]3(N)[C@H]([S+](N)[O-])[C@@]12N", "note": "(stereo partly drawn) [BW]", "In Vitro Cytotoxicity": "** (toxicities less than 25 μg/mL are represented by **)"}
{"molecule": "CN(C)c1cc(NCc2ccc(O)c(O)c2)c(O)c2c1C[C@@]1(N)C[C@@]3(N)[C@H](N(C)C)C(O)=C(C(N)=O)C(=O)[C@@]3(C#N)C(O)=C1C2=O", "note": "[TY]", "In Vitro Cytotoxicity": "* (toxicities greater than >25 μg/ml are represented by *)"}
{"molecule": "CN(C)c1cc(CNC(N)=O)c(O)c2c1C[C@@]1(N)C[C@@]3(N)[C@H](N(C)C)C(O)=C(C(N)=O)C(=O)[C@@]3(C#N)C(O)=C1C2=O", "note": "[TD]", "In Vitro Cytotoxicity": "* (toxicities greater than >25 μg/ml are represented by *)"}
{"molecule": "CN(C)[C@@H]1C(O)=C(C(N)=O)C(=O)[C@@]2(C#N)C(O)=C3C(=O)c4c(O)c(CNC(=O)C5CC5)cc(-c5ccc(C(C)(C)C)cc5)c4C[C@@]3(N)C[C@@]12N", "note": "[RM]", "In Vitro Cytotoxicity": "** (toxicities less than 25 μg/mL are represented by **)"}
{"molecule": "COc1ccc(CNCC(C)C)cc1-c1ccc(O)c2c1C[C@@]1(N)C[C@@]3(N)[C@H](N(C)C)C(O)=C(C(N)=O)C(=O)[C@@]3(C#N)C(O)=C1C2=O", "note": "[LW]", "In Vitro Cytotoxicity": "* (toxicities greater than >25 μg/ml are represented by *)"}
{"molecule": "CCNC(=O)NCc1cc(N(C)C)c2c(c1O)C(=O)C1=C(O)[C@]3(C#N)C(=O)C(C(N)=O)=C(O)[C@@H](N(C)C)[C@]3(N)C[C@]1(N)C2", "note": "[MH]", "In Vitro Cytotoxicity": "* (toxicities greater than >25 μg/ml are represented by *)"}
{"molecule": "CN(C)[C@@H]1C(O)=C(C(N)=O)C(=O)[C@@]2(C#N)C(O)=C3C(=O)c4c(O)c(-c5cccc6c5OCO6)cc(-c5ccc6c(c5)OCO6)c4[C@H](N)[C@@]3(N)[C@H](O)[C@@]12N", "note": "[PU]", "In Vitro Cytotoxicity": "** (toxicities less than 25 μg/mL are represented by **)"}
{"molecule": "CCOC(=O)CNC(=O)c1cccc(-c2cc(N(C)C)c3c(c2O)C(=O)C2=C(O)[C@]4(C#N)C(=O)C(C(N)=O)=C(O)[C@@H](N(C)C)[C@]4(N)C[C@]2(N)C3)c1", "note": "[LM]", "In Vitro Cytotoxicity": "** (toxicities less than 25 μg/mL are represented by **)"}
{"molecule": "CN(C)c1cc(-c2ccco2)c(O)c2c1C[C@@]1(N)C[C@@]3(N)[C@H](N(C)C)C(O)=C(C(N)=O)C(=O)[C@@]3(C#N)C(O)=C1C2=O", "note": "[DZ]", "In Vitro Cytotoxicity": "** (toxicities less than 25 μg/mL are represented by **)"}
{"molecule": "CC(=O)OCC(=O)Nc1ccc(-c2ccc(O)c3c2C[C@@]2(N)C[C@@]4(N)[C@H](N(C)C)C(O)=C(C(N)=O)C(=O)[C@@]4(C#N)C(O)=C2C3=O)cc1", "note": "[UR]", "In Vitro Cytotoxicity": "** (toxicities less than 25 μg/mL are represented by **)"}
{"molecule": "CCC(NCc1cc(N(C)C)c2c(c1O)C(=O)C1=C(O)[C@]3(C#N)C(=O)C(C(N)=O)=C(O)[C@@H](N(C)C)[C@]3(N)C[C@]1(N)C2)C(F)(F)F", "note": "(stereo partly drawn) [UM]", "In Vitro Cytotoxicity": "** (toxicities less than 25 μg/mL are represented by **)"}
{"molecule": "CN(C)[C@@H]1C(O)=C(C(N)=O)C(=O)[C@@]2(C#N)C(O)=C3C(=O)c4c(O)ccc(-c5cccnc5)c4C[C@@]3(N)C[C@@]12N", "note": "[UL]", "In Vitro Cytotoxicity": "** (toxicities less than 25 μg/mL are represented by **)"}
{"molecule": "COC(=O)/C=C/c1cccc(-c2ccc(O)c3c2C[C@@]2(N)C[C@@]4(N)[C@H](N(C)C)C(O)=C(C(N)=O)C(=O)[C@@]4(C#N)C(O)=C2C3=O)c1", "note": "[UF]", "In Vitro Cytotoxicity": "** (toxicities less than 25 μg/mL are represented by **)"}
{"molecule": "CN(C)[C@@H]1C(O)=C(C(N)=O)C(=O)[C@@]2(C#N)C(O)=C3C(=O)c4c(O)c(CNCC(C)(C)C)cc(CNCC(C)(C)C)c4C[C@@]3(N)C[C@@]12N", "note": "[TG]", "In Vitro Cytotoxicity": "* (toxicities greater than >25 μg/ml are represented by *)"}
{"molecule": "COc1ccc(CNc2cc(N(C)C)c3c(c2O)C(=O)C2=C(O)[C@]4(C#N)C(=O)C(C(N)=O)=C(O)[C@@](N)(N(C)C)[C@]4(N)C[C@]2(N)C3)cc1O", "note": "[TW]", "In Vitro Cytotoxicity": "* (toxicities greater than >25 μg/ml are represented by *)"}
{"molecule": "CN(C)[C@@H]1C(O)=C(C(N)=O)C(=O)[C@@]2(C#N)C(O)=C3C(=O)c4c(O)c(C(C)(C)C)cc(CCC(=O)c5cccnc5)c4C[C@@]3(N)C[C@@]12N", "note": "[ID]", "In Vitro Cytotoxicity": "* (toxicities greater than >25 μg/ml are represented by *)"}
{"molecule": "CN(C)[C@@H]1C(O)=C(C(N)=O)C(=O)[C@@]2(C#N)C(O)=C3C(=O)c4c(O)ccc(-c5ccc(CNc6cccnc6)cc5)c4C[C@@]3(N)C[C@@]12N", "note": "[UO]", "In Vitro Cytotoxicity": "** (toxicities less than 25 μg/mL are represented by **)"}
{"molecule": "COc1cc(-c2ccc(O)c3c2C[C@@]2(N)C[C@@]4(N)[C@H](N(C)C)C(O)=C(C(N)=O)C(=O)[C@@]4(C#N)C(O)=C2C3=O)cc(OC)c1OC", "note": "[OK]", "In Vitro Cytotoxicity": "** (toxicities less than 25 μg/mL are represented by **)"}
{"molecule": "CN(C)[C@@H]1C(O)=C(C(N)=O)C(=O)[C@@]2(C#N)C(O)=C3C(=O)c4c(O)ccc(C#CC5(C#N)CCCCC5)c4C[C@@]3(N)C[C@@]12N", "note": "[GA]", "In Vitro Cytotoxicity": "** (toxicities less than 25 μg/mL are represented by **)"}
{"molecule": "CN(C)[C@@H]1C(O)=C(C(N)=O)C(=O)[C@@]2(C#N)C(O)=C3C(=O)c4c(ccc(-c5ccco5)c4O)[C@H](O)[C@@]3(N)[C@H](O)[C@@]12N", "note": "[DY]", "In Vitro Cytotoxicity": "** (toxicities less than 25 μg/mL are represented by **)"}
{"molecule": "COc1ccc(C#Cc2ccc(O)c3c2C[C@@]2(N)C[C@@]4(N)[C@H](N(C)C)C(O)=C(C(N)=O)C(=O)[C@@]4(C#N)C(O)=C2C3=O)cc1", "note": "[FZ]", "In Vitro Cytotoxicity": "** (toxicities less than 25 μg/mL are represented by **)"}
{"molecule": "CC(C)CNCc1ccc2c(c1O)C(=O)C1=C(O)[C@]3(C#N)C(=O)C(C(N)=O)=C(O)[C@@H](N(C)C)[C@]3(N)[C@@H](O)[C@]1(N)[C@H]2N", "note": "[RQ]", "In Vitro Cytotoxicity": "* (toxicities greater than >25 μg/ml are represented by *)"}
{"molecule": "CN(C)[C@@H]1C(O)=C(C(N)=O)C(=O)[C@@]2(C#N)C(O)=C3C(=O)c4c(O)cccc4C[C@@]3(N)[C@H](NC(=O)CCN3CCOCC3)[C@@]12N", "note": "[EZ]", "In Vitro Cytotoxicity": "** (toxicities less than 25 μg/mL are represented by **)"}
{"molecule": "CN(C)[C@@H]1C(O)=C(C(N)=O)C(=O)[C@@]2(C#N)C(O)=C3C(=O)c4c(ccc(Nc5nc(-c6cccc([N+](=O)O)c6)cs5)c4O)C[C@@]3(N)C[C@@]12N", "note": "[ED]", "In Vitro Cytotoxicity": "** (toxicities less than 25 μg/mL are represented by **)"}
{"molecule": "CN(C)[C@@H]1C(O)=C(C(N)=O)C(=O)[C@@]2(C#N)C(O)=C3C(=O)c4c(O)ccc(C5C=CCC5)c4C[C@@]3(N)C[C@@]12N", "note": "(stereo partly drawn) [FD]", "In Vitro Cytotoxicity": "** (toxicities less than 25 μg/mL are represented by **)"}
{"molecule": "CCOC(=O)c1coc(NCc2cc(N(C)C)c3c(c2O)C(=O)C2=C(O)[C@]4(C#N)C(=O)C(C(N)=O)=C(O)[C@@H](N(C)C)[C@]4(N)C[C@]2(N)C3)n1", "note": "[TF]", "In Vitro Cytotoxicity": "* (toxicities greater than >25 μg/ml are represented by *)"}
{"molecule": "CC(=O)O[C@H]1[C@@]2(N)C(=C(O)[C@]3(C#N)C(=O)C(C(N)=O)=C(O)[C@@H](N(C)C)[C@]13N)C(=O)c1c(ccc(N=[N+]=N)c1O)[C@@H]2N", "note": "[DB]", "In Vitro Cytotoxicity": "** (toxicities less than 25 μg/mL are represented by **)"}
